Measured values from ChEMBL document CHEMBL4828736, “Discovery of ASTX029, A Clinical Candidate Which Modulates the Phosphorylation and Catalytic Activity of ERK1/2” (J Med Chem, 2021).
Values belong to the molecule of their own block, whether it stands above or below them.

How the values were obtained:
in vivo [1] = details: BALB/c, mouse, iv, 0.5 mg/kg
in vivo [2] = details: BALB/c, mouse, po, 5 mg/kg
physchem = details: buffer, pH 7.4
in vivo [3] = details: BALB/c, mouse, po, 5 mg/kg; remark: listed apart in the source
in vivo [4] = details: BALB/c, mouse, iv, 0.5 mg/kg; remark: listed apart in the source
in vivo [5] = details: BALB/c, mouse, po, 5 mg/kg; remark: listed apart in the source
in vitro [6] = details: human, microsomes
in vitro [7] = details: CD1, mouse, microsomes
COLO 205 = assay: cells; type: functional, cell-based; details: Homo sapiens, COLO 205, 96 h
CYP3A4 = CYP3A4 (Homo sapiens, UniProt P08684); assay: in vitro; details: recombinant enzyme
Chain of CYP3A4 (P08684 whole entry): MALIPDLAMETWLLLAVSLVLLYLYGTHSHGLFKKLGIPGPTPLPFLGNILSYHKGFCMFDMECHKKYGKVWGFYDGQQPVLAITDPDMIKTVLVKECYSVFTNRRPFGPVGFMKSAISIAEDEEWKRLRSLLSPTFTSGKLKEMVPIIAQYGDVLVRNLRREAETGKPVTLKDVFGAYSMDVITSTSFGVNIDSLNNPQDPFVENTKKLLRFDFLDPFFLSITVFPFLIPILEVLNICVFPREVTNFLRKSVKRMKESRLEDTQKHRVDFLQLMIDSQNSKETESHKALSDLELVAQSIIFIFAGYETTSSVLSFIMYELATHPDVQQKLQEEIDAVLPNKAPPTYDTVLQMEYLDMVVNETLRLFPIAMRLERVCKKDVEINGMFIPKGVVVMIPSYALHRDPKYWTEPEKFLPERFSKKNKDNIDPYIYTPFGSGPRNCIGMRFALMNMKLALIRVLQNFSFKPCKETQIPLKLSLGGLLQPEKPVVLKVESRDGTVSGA

in vivo [8] = details: Beagle, dog, po, 0.5 mg/kg
in vivo [9] = details: rat, po, 50 mg/kg
in vivo [10] = details: rat, po, 100 mg/kg
in vivo [11] = details: rat, po, 1 mg/kg
in vivo [12] = details: rat, po, 50 mg/kg; remark: listed apart in the source
in vivo [13] = details: rat, po, 1 mg/kg; remark: listed apart in the source
in vivo [14] = details: rat, po, 1 mg/kg; remark: listed apart in the source
in vivo [15] = details: Beagle, dog, po, 0.5 mg/kg; remark: listed apart in the source
in vivo [16] = details: Beagle, dog, po, 0.5 mg/kg; remark: listed apart in the source
in vivo [17] = details: Beagle, dog, iv
in vivo [18] = details: rat, po, 1 mg/kg; remark: listed apart in the source
in vivo [19] = details: rat, po, 100 mg/kg; remark: listed apart in the source
in vivo [20] = details: rat, po, 50 mg/kg; remark: listed apart in the source
in vivo [21] = details: rat, po, 50 mg/kg; remark: listed apart in the source
in vivo [22] = details: rat, iv, 0.5 mg/kg
in vivo [23] = details: rat, po, 100 mg/kg; remark: listed apart in the source
in vivo [24] = details: rat, po, 1 mg/kg; remark: listed apart in the source
in vivo [25] = details: rat, iv, 0.5 mg/kg; remark: listed apart in the source
in vivo [26] = details: rat, po, 50 mg/kg; remark: listed apart in the source
in vivo [27] = details: Beagle, dog, po, 0.5 mg/kg; remark: listed apart in the source
in vivo [28] = details: rat, po, 100 mg/kg; remark: listed apart in the source
in vivo [29] = details: Beagle, dog, iv; remark: listed apart in the source
in vivo [30] = details: Beagle, dog, po, 0.5 mg/kg; remark: listed apart in the source
in vivo [31] = details: rat, po, 100 mg/kg; remark: listed apart in the source
A-375 = assay: cells; type: functional, cell-based; details: Homo sapiens, A-375, 96 h
[32] = target: Mitogen-activated protein kinase 1 (Homo sapiens) (UniProt P28482); details: dose 1.0 nM, time 30.0 min
Chain of Mitogen-activated protein kinase 1 (Homo sapiens) (P28482 whole entry): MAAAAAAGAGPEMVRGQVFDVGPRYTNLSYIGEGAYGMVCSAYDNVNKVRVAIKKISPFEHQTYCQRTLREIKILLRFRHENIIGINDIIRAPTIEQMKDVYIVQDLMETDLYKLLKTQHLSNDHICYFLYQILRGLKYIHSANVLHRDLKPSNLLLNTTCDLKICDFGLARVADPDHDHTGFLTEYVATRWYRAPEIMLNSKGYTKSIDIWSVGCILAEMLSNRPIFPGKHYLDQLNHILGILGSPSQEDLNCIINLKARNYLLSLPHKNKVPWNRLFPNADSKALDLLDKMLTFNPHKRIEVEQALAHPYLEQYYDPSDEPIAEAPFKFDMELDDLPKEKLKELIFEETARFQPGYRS

SMILES: Cc1cccc([C@@H](CO)NC(=O)CN2Cc3ccc(-c4nc(NC5CCOCC5)ncc4Cl)cc3C2=O)c1
Vd at 24 h (in vivo [1]): 0.55 L/kg | AUC at 24 h (in vivo [2]): 3 µg·h/mL | chromatographic logD (physchem): 3 | bioavailability at 24 h (in vivo [3]): 41% | clearance at 24 h (in vivo [4]): 0.66 L/h/kg | half-life at 24 h (in vivo [5]): 150 min | half-life at 40 min, 1 µM (in vitro [6]): 40 min | half-life at 40 min, 1 µM (in vitro [7]): 65 min

SMILES: COc1cc(F)cc([C@@H](CO)NC(=O)[C@@H](C)N2Cc3ccc(-c4nc(Nc5ccnn5C)ncc4Cl)cc3C2=O)c1
Vd at 24 h (in vivo [1]): 0.52 L/kg | AUC at 24 h (in vivo [2]): 0.824 µg·h/mL | IC50 (COLO 205): 10 nM | chromatographic logD (physchem): 3.3 | bioavailability at 24 h (in vivo [3]): 13% | clearance at 24 h (in vivo [4]): 0.78 L/h/kg | half-life at 24 h (in vivo [5]): 66 min | half-life at 40 min, 1 µM (in vitro [6]): 23 min | half-life at 40 min, 1 µM (in vitro [7]): 35 min | half-life at 40 min, 1 µM (CYP3A4): 13 min

SMILES: O=C(CN1Cc2ccc(-c3nc(NC4CCOCC4)ncc3Cl)cc2C1=O)NCc1ccccc1
half-life at 40 min, 1 µM (in vitro [6]): 32 min | half-life at 40 min, 1 µM (in vitro [7]): 65 min

SMILES: COc1cc([C@@H](CO)NC(=O)[C@@H](C)N2Cc3ccc(-c4nc(NC5CCOCC5)ncc4Cl)cc3C2=O)ccn1
Vd at 24 h (in vivo [1]): 0.26 L/kg | AUC at 24 h (in vivo [2]): 2.4 µg·h/mL | chromatographic logD (physchem): 3 | bioavailability at 24 h (in vivo [3]): 20% | clearance at 24 h (in vivo [4]): 0.408 L/h/kg | half-life at 24 h (in vivo [5]): 90 min | half-life at 40 min, 1 µM (in vitro [6]): 33 min | half-life at 40 min, 1 µM (in vitro [7]): 120 min

SMILES: COc1cc(F)cc([C@@H](CO)NC(=O)[C@@H](C)N2Cc3ccc(-c4nc(N[C@@H](C)CO)ncc4Cl)cc3C2=O)c1
Vd at 24 h (in vivo [1]): 1.4 L/kg | AUC at 24 h (in vivo [2]): 0.31 µg·h/mL | chromatographic logD (physchem): 3.1 | bioavailability at 24 h (in vivo [3]): 9% | clearance at 24 h (in vivo [4]): 1.38 L/h/kg | half-life at 24 h (in vivo [5]): 108 min | half-life at 40 min, 1 µM (in vitro [6]): 28 min | half-life at 40 min, 1 µM (CYP3A4): 29 min

SMILES: COc1cc(F)cc([C@@H](CO)NC(=O)[C@@H](C)N2Cc3ccc(-c4nc(Nc5ccnc(OC)c5)ncc4Cl)cc3C2=O)c1
Vd at 24 h (in vivo [1]): 0.56 L/kg | AUC at 24 h (in vivo [2]): 4.1 µg·h/mL | chromatographic logD (physchem): 4.2 | bioavailability at 24 h (in vivo [3]): 23% | clearance at 24 h (in vivo [4]): 0.276 L/h/kg | half-life at 24 h (in vivo [5]): 60 min | half-life at 40 min, 1 µM (in vitro [6]): 25 min | half-life at 40 min, 1 µM (in vitro [7]): 31 min | half-life at 40 min, 1 µM (CYP3A4): 27 min

SMILES: COc1cc(F)cc([C@@H](CO)NC(=O)CN2C(=O)c3cc(-c4nc(NC5CCOCC5)ncc4Cl)ccc3[C@H]2C)c1
half-life at 40 min, 1 µM (in vitro [6]): 22 min | half-life at 40 min, 1 µM (CYP3A4): 7.3 min

The next lines start with the values.

Vd at 24 h (in vivo [1]): 0.68 L/kg | AUC at 24 h (in vivo [8]): 12.3 µg·h/mL | Tmax at 24 h (in vivo [9]): 120 min | AUC at 24 h (in vivo [10]): 118 µg·h/mL | half-life at 24 h (in vivo [11]): 90 min | AUC at 24 h (in vivo [12]): 17.5 µg·h/mL | bioavailability at 24 h (in vivo [13]): 6.1% | AUC at 24 h (in vivo [14]): 0.0579 µg·h/mL | bioavailability at 24 h (in vivo [15]): 91% | AUC at 24 h (in vivo [2]): 1.6 µg·h/mL | Tmax at 24 h (in vivo [16]): 60 min | Vd at 24 h (in vivo [17]): 0.071 L/kg | Tmax at 24 h (in vivo [18]): 30 min | Tmax at 24 h (in vivo [19]): 120 min | Cmax at 24 h (in vivo [20]): 2.74 µg/mL | bioavailability at 24 h (in vivo [21]): 35% | Vd at 24 h (in vivo [22]): 0.77 L/kg | bioavailability at 24 h (in vivo [23]): > 100% | chromatographic logD (physchem): 3.8 | bioavailability at 24 h (in vivo [3]): 42% | Cmax at 24 h (in vivo [24]): 0.0258 µg/mL | clearance at 24 h (in vivo [25]): 1.08 L/h/kg | half-life at 24 h (in vivo [26]): 168 min | clearance at 24 h (in vivo [4]): 1.32 L/h/kg | half-life at 24 h (in vivo [27]): 66 min | half-life at 24 h (in vivo [5]): 174 min | half-life at 40 min, 1 µM (in vitro [6]): 33 min | Cmax at 24 h (in vivo [28]): 15.7 µg/mL | clearance at 24 h (in vivo [29]): 0.0336 L/h/kg | Cmax at 24 h (in vivo [30]): 3.66 µg/mL | half-life at 40 min, 1 µM (in vitro [7]): 46 min | half-life at 24 h (in vivo [31]): 150 min
SMILES: COc1cc(F)cc([C@@H](CO)NC(=O)[C@@H](C)N2Cc3ccc(-c4nc(NC5CCOCC5)ncc4Cl)cc3C2=O)c1 [BEROTERKIB ANHYDROUS]

Vd at 24 h (in vivo [1]): 1.4 L/kg | AUC at 24 h (in vivo [2]): 0.15 µg·h/mL | IC50 (A-375): 4 nM | chromatographic logD (physchem): 3.3 | bioavailability at 24 h (in vivo [3]): 10% | clearance at 24 h (in vivo [4]): 3.24 L/h/kg | half-life at 24 h (in vivo [5]): 90 min | half-life at 40 min, 1 µM (in vitro [6]): 31 min | half-life at 40 min, 1 µM (in vitro [7]): 86 min
SMILES: COc1cc(F)cc([C@@H](CO)NC(=O)CN2Cc3ccc(-c4nc(NC5CCOCC5)ncc4Cl)cc3C2=O)c1

Vd at 24 h (in vivo [1]): 1.9 L/kg | AUC at 24 h (in vivo [2]): 0.5 µg·h/mL | IC50 (COLO 205): 8 nM | chromatographic logD (physchem): 3.2 | bioavailability at 24 h (in vivo [3]): 23% | clearance at 24 h (in vivo [4]): 2.22 L/h/kg | half-life at 24 h (in vivo [5]): 114 min | half-life at 40 min, 1 µM (in vitro [6]): 36 min | half-life at 40 min, 1 µM (CYP3A4): 23 min
SMILES: COc1cc(F)cc([C@@H](CO)NC(=O)[C@@H](C)N2Cc3ncc(-c4nc(NC5CCOCC5)ncc4Cl)cc3C2=O)c1

Vd at 24 h (in vivo [1]): 0.71 L/kg | AUC at 24 h (in vivo [2]): 2.65 µg·h/mL | IC50 (COLO 205): 12 nM | chromatographic logD (physchem): 3.3 | bioavailability at 24 h (in vivo [3]): 30% | clearance at 24 h (in vivo [4]): 0.564 L/h/kg | inhibition [32]: 49% | half-life at 24 h (in vivo [5]): 102 min | half-life at 40 min, 1 µM (in vitro [6]): 29 min | half-life at 40 min, 1 µM (CYP3A4): 50 min
SMILES: COc1cc(F)cc([C@@H](CO)NC(=O)[C@@H](C)N2Cc3ccc(-c4nc(NC5COC5)ncc4Cl)cc3C2=O)c1
